Source: PubChem BioAssay AID623909 (Vanderbilt High Throughput Screening Facility, 2012)
Calls of active or inactive are those of the source. The rule behind the calls is not given here.

Biological target: G protein-activated inward rectifier potassium channel 2 (Homo sapiens) + G protein-activated inward rectifier potassium channel 1 (Homo sapiens) (UniProt P48051+P48549)
Test: activation of human GIRK potassium channels – cell-based, thallium flux, HEK-293, GIRK1/2, dose response (AID 623909)
Settings: HEK-293 hGIRK1/2, thallium flux FluoZin-2 fluorescence; for activation, % of glutamate: at 90 µM (top of the series)

Chain of G protein-activated inward rectifier potassium channel 2 (Homo sapiens) + G protein-activated inward rectifier potassium channel 1 (Homo sapiens) (P48051 whole entry, looked up): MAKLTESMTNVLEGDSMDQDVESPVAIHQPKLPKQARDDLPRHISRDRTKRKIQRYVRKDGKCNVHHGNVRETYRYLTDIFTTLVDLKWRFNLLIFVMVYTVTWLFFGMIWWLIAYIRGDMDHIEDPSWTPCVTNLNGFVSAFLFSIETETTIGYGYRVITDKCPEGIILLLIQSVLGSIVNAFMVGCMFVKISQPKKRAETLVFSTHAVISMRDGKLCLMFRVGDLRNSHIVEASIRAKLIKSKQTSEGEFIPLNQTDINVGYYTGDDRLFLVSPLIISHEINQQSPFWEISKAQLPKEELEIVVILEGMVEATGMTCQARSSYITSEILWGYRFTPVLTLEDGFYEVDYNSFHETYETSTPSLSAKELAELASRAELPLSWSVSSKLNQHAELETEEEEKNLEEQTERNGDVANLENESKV
Chain of G protein-activated inward rectifier potassium channel 2 (Homo sapiens) + G protein-activated inward rectifier potassium channel 1 (Homo sapiens) (P48549 whole entry, looked up): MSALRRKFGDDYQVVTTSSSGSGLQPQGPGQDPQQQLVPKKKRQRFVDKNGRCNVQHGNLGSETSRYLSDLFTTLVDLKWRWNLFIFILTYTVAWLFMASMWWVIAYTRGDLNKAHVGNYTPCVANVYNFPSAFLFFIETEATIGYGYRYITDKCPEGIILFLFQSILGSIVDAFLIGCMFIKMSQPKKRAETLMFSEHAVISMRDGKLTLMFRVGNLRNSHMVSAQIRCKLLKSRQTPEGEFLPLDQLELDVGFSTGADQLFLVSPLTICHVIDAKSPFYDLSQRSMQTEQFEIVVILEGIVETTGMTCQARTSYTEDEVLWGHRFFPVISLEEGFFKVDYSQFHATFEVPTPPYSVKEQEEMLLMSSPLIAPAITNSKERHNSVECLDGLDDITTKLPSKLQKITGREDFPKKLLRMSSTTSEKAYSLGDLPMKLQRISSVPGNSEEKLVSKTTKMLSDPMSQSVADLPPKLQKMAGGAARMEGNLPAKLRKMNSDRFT

Compound `COc1ccccc1Nc1ccc(Nc2ccccc2OC)nn1` has an EC50 of 3.41 µM.

In the case of `COc1ccc(NC(=O)Nc2ccccc2C(=O)N2CCCC2)cc1`, the EC50 is reported as 30 µM.

`CSc1ccccc1NC(=O)Nc1ccc(Cl)cc1` was tested, and the “activation, % of glutamate” value was “inactive”.

In the case of `COc1ccc(C)cc1NC(=O)NCCC1=CCCCC1`, the EC50 is reported as 3.94 µM.

With `CCCSc1nnc(Nc2ccccc2C)s1` the EC50 was 30 µM.

Compound `O=C(Nc1ccccc1)Nc1nccs1` has an EC50 of 30 µM.

Compound `Cc1ccc(Cl)cc1NC(=S)NCc1cccn1C` has an EC50 of 16.2 µM.

Compound `C/C(CC(=O)NCC(C)C)=N\NC(=O)COc1cc(C)c(Br)cc1Br` has an EC50 of 16.8 µM.

For `COc1ccc(Br)cc1CNC(=O)Nc1cccs1`, the EC50 was 1.75 µM.

`Cc1ccc(NC(=O)CN2c3cccc4cccc(c34)S2(=O)=O)cc1S(=O)(=O)N1CCOCC1` was tested, and the EC50 was 2.23 µM.

Work on `CCCCc1ccc(NC(=S)Nc2cccnc2)cc1` yielded an EC50 of 8.96 µM.

With `Cc1ccc(NC(=O)Cc2ccccc2Cl)cc1S(=O)(=O)N(C)C` the EC50 was 2.62 µM.

For `CC(=O)c1sc(NC(=O)c2cc(-c3ccccc3)nn2-c2ccccc2)nc1C`, the EC50 was 0.884 µM.

Compound `C=C(C)C1CC=C(C)/C(=N/NC(=O)COc2cccc(C)c2)C1` (configuration not stated) has an EC50 of 8.94 µM.

In the case of `CC1CCCN(Cc2cccc(Oc3ccccc3)c2)C1` (configuration not stated), the EC50 is reported as 30 µM.

For `CSc1ccccc1NC(=O)Nc1ccccc1`, the EC50 was 12.8 µM.

Compound `O=C(/C=C/c1ccccc1)NC(NC(=S)Nc1cccc(Cl)c1)C(Cl)(Cl)Cl` (configuration not stated) has an EC50 of 5.91 µM.

Compound `CC(C)=CCC(C)(C)CNC(=O)NC1CCCCC1` has an EC50 of 30 µM.

`O=C(Nc1cccc(Cl)c1)Nc1nccs1` showed an EC50 of 1.95 µM.

`CC(Sc1nnnn1C)C(=O)Nc1ccc(Oc2ccccc2)cc1` (configuration not stated) gave an EC50 of 30 µM.

`O=C(NNC(=O)c1cccs1)Nc1cccc(Cl)c1` showed an EC50 of 11.2 µM.

For `CCCCc1ccc(NC(=S)Nc2ccc(Cl)c(S(=O)(=O)N(C)C)c2)cc1`, the EC50 was 4 µM.

Work on `Cc1ccc(NC(=O)COC(=O)CCC(=O)c2ccc(Cl)cc2)cc1S(=O)(=O)N(C)C` yielded an EC50 of 30 µM.

In the case of `CCc1ccc(CNCCNCC(C)O)cc1` (configuration not stated), the EC50 is reported as 2.36 µM.

Compound `CN(C)S(=O)(=O)c1cccc(NC(=O)Cc2ccc(Cl)cc2)c1` has an EC50 of 9.88 µM.

Compound `CCOc1ccc(NC(=O)NC23CC4CC(CC(C4)C2)C3)cc1` has an EC50 of 1.48 µM.

Work on `COc1c(Cl)cc(Cl)cc1CNCCNCC(C)O` (configuration not stated) yielded an EC50 of 0.497 µM.

With `CC1CC(C)CN(C(=S)Nc2ccc(SC(F)F)cc2)C1` (configuration not stated) the EC50 was 10.6 µM.

`CSc1cccc(NC(=O)COc2ccccc2)c1` was tested, and the EC50 was 30 µM.

Compound `S=C(Nc1cccc(Cl)c1)Nc1ccccc1Oc1ccccc1` has an EC50 of 8.09 µM.

In the case of `O=C(Nc1ccc(Cl)cc1)NC1CCCCC1Cc1ccco1` (configuration not stated), the EC50 is reported as 4.14 µM.

`COc1ccc(C2CC(c3ccc(Cl)c(Cl)c3)Nc3nc(N)nn32)cc1` (configuration not stated) was tested, and the EC50 was 2.41 µM.

Compound `Cc1ccc(-c2nnn(CC(=O)NC3CC4CCC3C4)n2)cc1` (configuration not stated) has an EC50 of 0.317 µM.

In the case of `CCOc1ccc(NC(=O)Nc2cccs2)cc1`, the “activation, % of glutamate” value is reported as “inactive”.

Work on `O=C(Nc1ccc(F)c(F)c1)NC1CCCCC1` yielded an EC50 of 8.55 µM.

`Fc1ccc(CSc2nc3ccccc3[nH]2)c2ccccc12` gave an EC50 of 3.6 µM.

`COC(=O)[C@H](Cc1ccccc1)NC(=O)NCCC1=CCCCC1` gave an EC50 of 30 µM.

For `Cc1ccccc1OCC(=O)N/N=C/c1cccn1C`, the EC50 was 30 µM.

For `COc1cccc(NC(=O)Nc2cccs2)c1`, the EC50 was 7.33 µM.

For `Cc1cccc(NC(=O)NC(C)CCc2ccccc2)c1` (configuration not stated), the EC50 was 30 µM.

For `NC(=O)SCC(=O)Nc1ccc(Cl)cc1`, the EC50 was 4.2 µM.

Work on `CC(/C=N/NC(=O)c1c(Br)cnn1C)=C\c1ccccc1` yielded an EC50 of 3.54 µM.

In the case of `O=C(Nc1ccc(Cl)cc1)Nc1nccs1`, the EC50 is reported as 3.65 µM.

`CCOc1ccccc1Nc1nnc(Cc2ccccc2Cl)c(=O)[nH]1` gave an EC50 of 0.67 µM.

In the case of `Cc1cc(C)n(-c2ccc(C(=O)OCC(=O)Nc3ccc(Cl)c(S(=O)(=O)N(C)C)c3)cc2)n1`, the EC50 is reported as 8.94 µM.

`CCOC(=O)C1=C(CC)Nc2ccccc2N=C1NC(=O)Nc1ccc(Cl)c(Cl)c1` gave an EC50 of 3.62 µM.

For `Cc1ccc(NC(=O)COC(=O)/C=C/c2ccco2)cc1S(=O)(=O)N(C)C`, the EC50 was 30 µM.

For `CCOCc1c(C(=O)OCC(=O)Nc2ccc(C)c(S(=O)(=O)N(C)C)c2)oc2ccccc12`, the EC50 was 30 µM.

`COc1cccc(NC(=O)CC2COc3ccccc3O2)c1` (configuration not stated) was tested, and the EC50 was 30 µM.

`CCSc1nnc(NC(=O)NC(CC)(C(F)(F)F)C(F)(F)F)s1` gave an EC50 of 30 µM.

`CCOc1ccc(OCCSc2nc3ccccc3[nH]2)cc1` showed an EC50 of 1.67 µM.

With `CSc1cccc(NC(=O)CN(c2ccccc2)S(=O)(=O)N(C)C)c1` the EC50 was 30 µM.

For `COc1ccc(NC(=O)Nc2cc(C)ccc2OC)cc1`, the EC50 was 2.05 µM.

Compound `CCCn1c(C)cc(/C=C(\C#N)C(=O)OCC(=O)Nc2cccc(OC)c2)c1C` has an EC50 of 30 µM.

`Cc1ccc(CC(=O)N2CCN(c3cccc(C(F)(F)F)c3)CC2)cc1` gave an EC50 of 5.18 µM.

With `COc1ccc(C(=O)NC(=S)NC(C)C)cc1Br` the EC50 was 2.25 µM.

With `Cc1nn(CC(=O)Nc2ccc(Cl)c(S(=O)(=O)N(C)C)c2)c(C)c1[N+](=O)[O-]` the EC50 was 30 µM.

`CCCN(CC1CC1)C(=S)Nc1ccc(Oc2ccccc2)cc1` was tested, and the EC50 was 3.54 µM.

For `O=C(Cc1ccccc1)N/N=C/c1cccn1-c1ccc([N+](=O)[O-])cc1`, the EC50 was 1.42 µM.

Work on `COc1ccc(Nc2nnc(Cc3ccccc3)c(=O)[nH]2)c(OC)c1` yielded an EC50 of 30 µM.

In the case of `CCOC(=O)c1ccc(NC(=O)Nc2ccc(OC)c(OC)c2)cc1`, the EC50 is reported as 5.54 µM.

`CCOC(=O)Cc1csc(NC(=O)Nc2ccccc2)n1` was tested, and the EC50 was 7.34 µM.

`COc1cccc(NC(=O)Cn2cc(C#N)c3ccccc32)c1` gave an EC50 of 1.65 µM.

With `CN(C)S(=O)(=O)N(CC(=O)Nc1ccc2ccccc2c1)c1ccccc1` the EC50 was 7.2 µM.

`Cc1cc(NC(=O)Nc2ccccc2)n(-c2ccccc2)n1` gave an EC50 of 3.76 µM.

`CCOC(=O)C(Cc1ccccc1)NC(=O)Cn1nnc(-c2ccccc2)n1` (configuration not stated) gave an EC50 of 30 µM.

`COc1ccc(C)cc1NC(=O)Nc1ccccc1` was tested, and the EC50 was 5.96 µM.
